According to patent US20260209214A1, “LSD1 MODULATORS” (RECURSION PHARMACEUTICALS, INC., priority 2022, published 2026):
Like-named read-outs stand apart in the source and are kept apart here.

Target: Recombinant human LSD1 (Homo sapiens, UniProt O60341)
Assay: LSD1 inhibition assay (HTRF LSD1 Histone H3K4 mono-demethylation assay, me1->me0)
Assay type: biochemical
Conditions: 20 nM recombinant human LSD1, 95 nM H3K4(me1) biotinylated peptide, 15 min preincubation, 60 min at 25° C.
Summary of the method: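 Recombinant human LSD1 (20 nM) pre-incubated 15 min with 10 semi-log compound doses, then 95 nM biotinylated H3K4me1 peptide for 60 min at 25 °C in pH 8.5 Tris/NaCl buffer with 10 μM FAD, 1 mM DTT. HTRF me0-antibody read after 90 min; IC50 from 4-parameter fit.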

[1] = read-out: LSD1 inhibition IC50 (nM range)

N#Cc1ccc(-c2cccc(CN3C[C@@H]4C[C@@H](N)[C@H]3C4)c2-c2cncs2)cc1F [Example 237, 3'-{[(1R,4R,6R)-6-amino-2-azabicyclo[2.2.1]heptan-2-yl]methyl}-3-fluoro-2'-(1,3-thiazol-5-yl)-[1,1'-biphenyl]-4-carbonitrile]
IC50 [1]: 10 to 25 nM

N#Cc1ccc(-c2cccc(CN3[C@@H]4CC[C@H]3[C@@H](N)C4)c2C2CC2)cc1F (racemic) [Example 176, 3'-{[(1S,2S,4R)-2-amino-7-azabicyclo[2.2.1]heptan-7-yl]methyl}-2'-cyclopropyl-3-fluoro-[1,1'-biphenyl]-4-carbonitrile]
IC50 [1]: 25 to 100 nM

COc1c(CN2[C@@H]3CC[C@H]2[C@@H](N)C3)cccc1-c1ccc(C#N)c(F)c1 (racemic) [Example 180, 3'-{[(1S,2S,4R)-2-amino-7-azabicyclo[2.2.1]heptan-7-yl]methyl}-3-fluoro-2'-methoxy-[1,1'-biphenyl]-4-carbonitrile]
IC50 [1]: 25 to 100 nM

N#Cc1ccc(-c2cc(CN3C[C@]4(N)CC[C@H]3C4)cc(N3CCCC3)c2)cc1F [Example 294, 4-[3-[[(1S,4S)-4-amino-2-azabicyclo[2.2.1]heptan-2-yl]methyl]-5-pyrrolidin-1-yl-phenyl]-2-fluoro-benzonitrile]
IC50 [1]: 100 to 1000 nM

N#Cc1ccc(-c2cccc(CN3CC4CCC3C(N)C4)c2C2CC2)cc1F (stereo not drawn) [Example 227, 3'-({6-amino-2-azabicyclo[2.2.2]octan-2-yl}methyl)-2'-cyclopropyl-3-fluoro-[1,1'-biphenyl]-4-carbonitrile]
IC50 [1]: 25 to 100 nM

N#Cc1ccc(-c2cc(CC3CNCCO3)ccc2N2CC(CO)C2)cc1F (stereo not drawn) [Example 137, 3-fluoro-2′-[3-(hydroxymethyl)azetidin-1-yl]-5′-[(morpholin-2-yl)methyl]-[1,1′-biphenyl]-4-carbonitrile]
IC50 [1]: 100 to 1000 nM

Cc1cc(-c2cccc(CC3CNCCO3)c2-c2ccns2)ccc1C#N (stereo not drawn) [Example 43, 3-methyl-3′-[(morpholin-2-yl)methyl]-2′-(1,2-thiazol-5-yl)-[1,1′-biphenyl]-4-carbonitrile]
IC50 [1]: 25 to 100 nM

C[C@@]1(N)CCN(Cc2cccc(-c3ccc(C#N)c(F)c3)c2-c2ccns2)C1 [Example 242, 3'-{[(3R)-3-amino-3-methylpyrrolidin-1-yl]methyl}-3-fluoro-2'-(1,2-thiazol-5-yl)-[1,1'-biphenyl]-4-carbonitrile]
IC50 [1]: 10 to 25 nM

N#Cc1ccc(-c2cccc(CC3CNCCO3)c2-c2ccno2)cc1 (stereo not drawn) [Example 12, 3′-[(morpholin-2-yl)methyl]-2′-(1,2-oxazol-5-yl)-[1,1′-biphenyl]-4-carbonitrile]
IC50 [1]: 10 to 25 nM

N#Cc1ccc(-c2cccc(CC3CNCCO3)c2-n2cccn2)cc1F (stereo not drawn) [Example 90, 2-fluoro-4-[3-(morpholin-2-ylmethyl)-2-pyrazol-1-yl-phenyl]benzonitrile]
IC50 [1]: > 1000 nM

CCN1CCN(c2ccc(CC3CNCCO3)cc2-c2ccc(C#N)c(F)c2)CC1 (stereo not drawn) [Example 164, 2′-(4-ethylpiperazin-1-yl)-3-fluoro-5′-[(morpholin-2-yl)methyl]-[1,1′-biphenyl]-4-carbonitrile]
IC50 [1]: 100 to 1000 nM

N#Cc1ccc(-c2cccc(CN3[C@@H]4CC[C@H]3[C@@H](N)C4)c2C(F)F)cc1F (racemic) [Example 301, 3'-{[(1S,2S,4R)-2-amino-7-azabicyclo[2.2.1]heptan-7-yl]methyl}-2'-(difluoromethyl)-3-fluoro-[1,1'-biphenyl]-4-carbonitrile]
IC50 [1]: 25 to 100 nM

N#Cc1ccc(-c2cc(CC3CNCCO3)ccc2N2CCCC3(CCOC3)C2)cc1F (stereo not drawn) [Example 118, 3-fluoro-5′-[(morpholin-2-yl)methyl]-2′-{2-oxa-7-azaspiro[4.5]decan-7-yl}-[1,1′-biphenyl]-4-carbonitrile]
IC50 [1]: 100 to 1000 nM

N#Cc1ccc(-c2cccc(CC3CNCCO3)c2N2CCC2)cc1 (stereo not drawn) [Example 50, 2′-(azetidin-1-yl)-3′-[(morpholin-2-yl)methyl]-[1,1′-biphenyl]-4-carbonitrile]
IC50 [1]: 100 to 1000 nM

N#Cc1ccc(-c2cccc(CN3C[C@]4(N)CC[C@H]3C4)c2C2CC2)cc1 [Example 184, 3'-{[(1S,4S)-4-amino-2-azabicyclo[2.2.1]heptan-2-yl]methyl}-2'-cyclopropyl-[1,1'-biphenyl]-4-carbonitrile]
IC50 [1]: 25 to 100 nM

N#Cc1ccc(-c2cc(CN3[C@@H]4CC[C@H]3[C@@H](N)C4)ccc2-c2nccs2)cc1F (racemic) [Example 253, 5'-{[(1S,2S,4R)-2-amino-7-azabicyclo[2.2.1]heptan-7-yl]methyl}-3-fluoro-2'-(1,3-thiazol-2-yl)-[1,1'-biphenyl]-4-carbonitrile]
IC50 [1]: 25 to 100 nM

N#Cc1ccc(-c2cccc(CN3CC(F)(F)[C@@]34CCNC4)c2Cl)cc1F [Example 337, 2'-chloro-3'-{[(4S)-3,3-difluoro-1,6-diazaspiro[3.4]octan-1-yl]methyl}-3-fluoro-[1,1'-biphenyl]-4-carbonitrile]
IC50 [1]: > 1000 nM

CC(C)c1c(CN2[C@@H]3CC[C@H]2[C@@H](N)C3)cccc1-c1ccc(C#N)c(F)c1 (racemic) [Example 220, 3'-{[(1S,2S,4R)-2-amino-7-azabicyclo[2.2.1]heptan-7-yl]methyl}-3-fluoro-2'-(propan-2-yl)-[1,1'-biphenyl]-4-carbonitrile]
IC50 [1]: 25 to 100 nM

CN[C@@H]1C[C@@H]2CC[C@H]1N2Cc1cccc(-c2ccc(C#N)c(F)c2)c1-c1ccns1 (single isomer, unassigned) [Example 190]
IC50 [1]: < 10 nM

N#Cc1ccc(-c2cccc(N3CCC4NCCC4C3)c2-c2ccns2)cc1F (stereo not drawn) [Example 108, 3-fluoro-3'-{octahydro-1H-pyrrolo[3,2-c]pyridin-5-yl}-2'-(1,2-thiazol-5-yl)-[1,1'-biphenyl]-4-carbonitrile]
IC50 [1]: < 10 nM

COCCOc1ccc(-c2ccc(CC3CNCCO3)cc2-c2ccc(C#N)c(F)c2)cc1 (stereo not drawn) [Example 94, 3-fluoro-2′-[4-(2-methoxyethoxy)phenyl]-5′-[(morpholin-2-yl)methyl]-[1,1′-biphenyl]-4-carbonitrile]
IC50 [1]: 25 to 100 nM

N#Cc1ccc(-c2cccc(CN3CCCC4(CCN4)C3)c2C2CC2)cc1F (stereo not drawn) [Example 267, 2'-cyclopropyl-3'-({1,6-diazaspiro[3.5]nonan-6-yl}methyl)-3-fluoro-[1,1'-biphenyl]-4-carbonitrile]
IC50 [1]: 100 to 1000 nM

N#Cc1ccc(-c2ccc(F)c(CN3[C@H]4CC[C@@H]3[C@H](N)C4)c2OC(F)F)cc1F (single isomer, unassigned) [Example 169]
IC50 [1]: 10 to 25 nM

CN1CC2(C1)CN(Cc1cccc(-c3ccc(C#N)c(F)c3)c1Cl)C2 [Example 214, CN1CC2(C1)CN(Cc3cccc(c3Cl)c4ccc(C#N)c(F)c4)C2]
IC50 (LSD1 inhibition IC50 (nM range)): > 1000 nM

N#Cc1ccc(-c2cccc(CN3C[C@H](N)C[C@H](C(F)(F)F)C3)c2Cl)cc1F [Example 326, 3'-{[(3R,5S)-3-amino-5-(trifluoromethyl)piperidin-1-yl]methyl}-2'-chloro-3-fluoro-[1,1'-biphenyl]-4-carbonitrile]
IC50 [1]: > 1000 nM

N#Cc1ccc(-c2cccc(CC3CNCCO3)c2-c2ccns2)cc1F (stereo not drawn) [Example 36, 3-fluoro-3′-[(morpholin-2-yl)methyl]-2′-(1,2-thiazol-5-yl)-[1,1′-biphenyl]-4-carbonitrile]
IC50 [1]: 10 to 25 nM

N#Cc1ccc(-c2cc(CN3[C@@H]4CC[C@H]3[C@@H](N)C4)ccc2Cl)cc1F (racemic) [Example 305, 5'-{[(1S,2S,4R)-2-amino-7-azabicyclo[2.2.1]heptan-7-yl]methyl}-2'-chloro-3-fluoro-[1,1'-biphenyl]-4-carbonitrile]
IC50 [1]: 25 to 100 nM

N#Cc1ccc(-c2cccc(CN3C[C@@]4(N)CC[C@@H]3C4)c2C2CC2)cc1F [Example 225, 3'-{[(1R,4R)-4-amino-2-azabicyclo[2.2.1]heptan-2-yl]methyl}-2'-cyclopropyl-3-fluoro-[1,1'-biphenyl]-4-carbonitrile]
IC50 [1]: 100 to 1000 nM

N#Cc1ccc(-c2cccc(C[C@@H]3CNCCO3)c2-c2scnc2Cl)cc1F (single isomer, unassigned) [Example 37]
IC50 [1]: 10 to 25 nM

CN[C@@H]1C[C@@H]2CC[C@H]1N2Cc1cccc(-c2ccc(C#N)c(F)c2)c1C1CC1 (single isomer, unassigned) [Example 178]
IC50 [1]: 10 to 25 nM

N#Cc1ccc(-c2cccc(CC3CNCCO3)c2-c2ccns2)cc1 (stereo not drawn) [Example 1, 3′-[(morpholin-2-yl)methyl]-2′-(1,2-thiazol-5-yl)-[1,1′-biphenyl]-4-carbonitrile]
IC50 [1]: 10 to 25 nM

N#Cc1ccc(-c2cc(CC3CNCCO3)ccc2-c2ccc(OCC3CC3)nc2)cc1F (stereo not drawn) [Example 96, 2′-[6-(cyclopropylmethoxy)pyridin-3-yl]-3-fluoro-5′-[(morpholin-2-yl)methyl]-[1,1′-biphenyl]-4-carbonitrile]
IC50 [1]: 100 to 1000 nM

N#Cc1ccc(-c2cccc(CN3[C@@H]4CC[C@H]3[C@@H](N)C4)c2-c2ccns2)cc1 (racemic) [Example 170, 3'-{[(1S,2S,4R)-2-amino-7-azabicyclo[2.2.1]heptan-7-yl]methyl}-2'-(1,2-thiazol-5-yl)-[1,1'-biphenyl]-4-carbonitrile]
IC50 [1]: 10 to 25 nM

COc1ccc(-c2ccc(CC3CNCCO3)cc2-c2ccc(C#N)c(F)c2)cn1 (stereo not drawn) [Example 80, 3-fluoro-2′-(6-methoxypyridin-3-yl)-5′-[(morpholin-2-yl)methyl]-[1,1′-biphenyl]-4-carbonitrile]
IC50 [1]: 100 to 1000 nM

N#Cc1ccc(-c2cc(CC3CNCCO3)ccc2N2CCN(c3nccs3)CC2)cc1F (stereo not drawn) [Example 88, 3-fluoro-5′-[(morpholin-2-yl)methyl]-2′-[4-(1,3-thiazol-2-yl)piperazin-1-yl]-[1,1′-biphenyl]-4-carbonitrile]
IC50 [1]: 100 to 1000 nM

Cc1cc(CC2CNCCO2)c(-c2ccns2)c(-c2ccc(C#N)cc2)c1 (stereo not drawn) [Example 53, 5′-methyl-3′-[(morpholin-2-yl)methyl]-2′-(1,2-thiazol-5-yl)-[1,1′-biphenyl]-4-carbonitrile]
IC50 [1]: 10 to 25 nM
